Read-outs that look alike come from different tables or passages of the source.
How the values were obtained:
[1] = target: T1, HDAC-1 (Homo sapiens, UniProt Q13547); experiment: Deacetylase fluorescence assay (HDAC-1); assay type: biochemical
T1 construct: made in house
In short: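 Flag-tagged HDAC-1 immunopurified from overexpressing 293-derived cells was assayed in 25 mM Tris-HCl pH 8.0, 137 mM NaCl, 2.7 mM KCl, 1 mM MgCl2 with Fluor de Lys substrate (50 uM) and inhibitor. Deacetylation was read by fluorescence after trypsin developer containing TSA.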

[2] = test system: p21 promoter (p21-luc) in H1299 cells; experiment: p21 promoter luciferase assay using stably transfected p21-luc in H1299 cells; assay type: cell-based; settings: Homo sapiens, NCI-H1299
In short: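 H1299 cells stably carrying a p21 promoter–luciferase reporter, grown in RPMI 1640/10% FBS under Geneticin selection, seeded about 5000 cells/well and incubated overnight at 37 C. Compound exposure lasted one day. Cells were then lysed and luciferase luminescence measured.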

T1 sequence (Q13547 whole entry): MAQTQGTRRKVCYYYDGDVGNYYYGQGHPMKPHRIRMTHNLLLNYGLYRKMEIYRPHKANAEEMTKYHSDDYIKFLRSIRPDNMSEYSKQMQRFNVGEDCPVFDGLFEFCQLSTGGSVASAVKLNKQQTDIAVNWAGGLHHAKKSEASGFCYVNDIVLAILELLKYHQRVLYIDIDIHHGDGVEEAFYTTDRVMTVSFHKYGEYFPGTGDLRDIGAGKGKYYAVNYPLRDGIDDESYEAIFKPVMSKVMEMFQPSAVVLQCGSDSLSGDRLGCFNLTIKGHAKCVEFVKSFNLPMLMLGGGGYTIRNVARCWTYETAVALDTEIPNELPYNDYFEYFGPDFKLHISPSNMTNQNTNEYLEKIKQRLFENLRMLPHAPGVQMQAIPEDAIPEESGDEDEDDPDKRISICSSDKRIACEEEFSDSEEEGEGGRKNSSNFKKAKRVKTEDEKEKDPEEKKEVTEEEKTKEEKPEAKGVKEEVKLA

SMILES | IC50 ([1]; read-out: HDAC-1 IC50) [nM] | AC50 [2] [nM] | IC50 [1] [nM]
CC(C)(C)c1[nH]c2ccccc2c1CCN1CCc2cc(/C=C/C(=O)NO)ccc2C1 [Example 74, (E)-3-{2-[2-(2-tert-Butyl-1H-indol-3-yl)-ethyl]-1,2,3,4-tetrahydro-isoquinolin-6-yl}-N-hydroxy-acrylamide] | < 100 | 100 to 1000 | 
CCc1nn2ccccc2c1CCN1CCc2cc(CCC(=O)NO)ccc2C1 [Example 73, 3-{2-[2-(2-Ethyl-pyrazolo[1,5-a]pyridin-3-yl)-ethyl]-1,2,3,4-tetrahydro-isoquinolin-6-yl}-N-hydroxy-propionamide] | 100 to 1000 | > 1000 | 
O=C(/C=C/c1ccc2c(c1)CN(C(=O)Cc1ccccc1)C2)NO [Example 26, (E)-N-Hydroxy-3-(2-phenylacetyl-2,3-dihydro-1H-isoindol-5-yl)-acrylamide] | 100 to 1000 | > 1000 | 
CCCCS(=O)(=O)N1Cc2ccc(/C=C/C(=O)NO)cc2C1 [Example 19, (E)-3-[2-(Butane-1-sulfonyl)-2,3-dihydro-1H-isoindol-5-yl]-N-hydroxy-acrylamide] | 100 to 1000 | > 1000 | 
CN(C)c1ccc(C(=O)N2CCc3ccc(CCC(=O)NO)cc3C2)cc1 [Example 90, 3-[2-(4-Dimethylamino-benzoyl)-1,2,3,4-tetrahydro-isoquinolin-7-yl]-N-hydroxy-propionamide] | 100 to 1000 | > 1000 | 
COc1ccc(S(=O)(=O)N2Cc3ccc(/C=C/C(=O)NO)cc3C2)cc1 [Example 9, (E)-N-Hydroxy-3-[2-(4-methoxy-benzenesulfonyl)-2,3-dihydro-1H-isoindol-5-yl]-acrylamide] | < 100 | > 1000 | 
O=C(/C=C/c1ccc2c(c1)CN(CCc1c[nH]c3ccccc13)C2)NO [Example 27, (E)-N-Hydroxy-3-{2-[2-(1H-indol-3-yl)-ethyl]-2,3-dihydro-1H-isoindol-5-yl}-acrylamide] |  | > 1000 | < 100
O=C(/C=C/c1ccc2c(c1)CN(C(=O)C1CCCC1)C2)NO [Example 22, (E)-3-(2-Cyclopentanecarbonyl-2,3-dihydro-1H-isoindol-5-yl)-N-hydroxy-acrylamide] | 100 to 1000 | > 1000 | 
Cc1nn(C)c(C)c1CN1CCc2ccc(/C=C/C(=O)NO)cc2C1 [Example 52, (E)-N-Hydroxy-3-[2-(1,3,5-trimethyl-1H-pyrazol-4-ylmethyl)-1,2,3,4-tetrahydro-isoquinolin-7-yl]-acrylamide] | 100 to 1000 | > 1000 | 
Cc1nn(C)c(C)c1CN1CCc2cc(/C=C/C(=O)NO)ccc2C1 [Example 32, (E)-N-Hydroxy-3-[2-(1,3,5-trimethyl-1H-pyrazol-4-ylmethyl)-1,2,3,4-tetrahydro-isoquinolin-6-yl]-acrylamide] | > 1000 | > 1000 | 
O=C(/C=C/c1ccc2c(c1)CCN(CCc1cnn3ccccc13)C2)NO [Example 69, (E)-N-Hydroxy-3-[2-(2-pyrazolo[1,5-a]pyridin-3-yl-ethyl)-1,2,3,4-tetrahydro-isoquinolin-6-yl]-acrylamide] | < 100 | > 1000 | 
O=C(/C=C/c1ccc2c(c1)CN(Cc1ccccc1)CC2)NO [Example 51, (E)-3-(2-Benzyl-1,2,3,4-tetrahydro-isoquinolin-7-yl)-N-hydroxy-acrylamide] | 100 to 1000 | > 1000 | 
O=C(/C=C/c1ccc2c(c1)CN(S(=O)(=O)c1ccccc1)C2)NO [Example 5, (E)-3-(2-Benzenesulfonyl-2,3-dihydro-1H-isoindol-5-yl)-N-hydroxy-acrylamide] | 100 to 1000 | > 1000 | 
O=C(/C=C/c1ccc2c(c1)CN(S(=O)(=O)c1ccncc1)C2)NO [Example 6, (E)-N-Hydroxy-3-[2-(pyridine-4-sulfonyl)-2,3-dihydro-1H-isoindol-5-yl]-acrylamide] | 100 to 1000 | > 1000 | 
CC(C)(C)c1[nH]c2ccccc2c1CCN1CCc2ccc(/C=C/C(=O)NO)cc2C1 [Example 42, (E)-3-{2-[2-(2-tert-Butyl-1H-indol-3-yl)-ethyl]-1,2,3,4-tetrahydro-isoquinolin-7-yl}-N-hydroxy-acrylamide] | < 100 | 100 to 1000 | 
O=C(/C=C/c1ccc2c(c1)CCN(CCc1c[nH]c3ccccc13)C2)NO [Example 68, (E)-N-Hydroxy-3-{2-[2-(1H-indol-3-yl)-ethyl]-1,2,3,4-tetrahydro-isoquinolin-6-yl}-acrylamide] | < 100 | > 1000 | 
O=C(/C=C/c1ccc2c(c1)CN(S(=O)(=O)c1cccc(C(F)(F)F)c1)C2)NO [Example 12, (E)-N-Hydroxy-3-[2-(3-trifluoromethyl-benzenesulfonyl)-2,3-dihydro-1H-isoindol-5-yl]-acrylamide] | 100 to 1000 | > 1000 | 

More lines, main results first:

IC50 ([1]; read-out: HDAC-1 IC50) [nM] | SMILES | AC50 [2] [nM] | IC50 [1] [nM]
100 to 1000 | O=C(/C=C/c1ccc2c(c1)CN(S(=O)(=O)c1ccc(C(F)(F)F)cc1)C2)NO [Example 10, (E)-N-Hydroxy-3-[2-(4-trifluoromethyl-benzenesulfonyl)-2,3-dihydro-1H-isoindol-5-yl]-acrylamide] | > 1000 | 
< 100 | COc1ccc(C(=O)N2CCc3ccc(/C=C/C(=O)NO)cc3C2)cc1 [Example 57, (E)-N-Hydroxy-3-[2-(4-methoxy-benzoyl)-1,2,3,4-tetrahydro-isoquinolin-7-yl]-acrylamide] | > 1000 | 
< 100 | O=C(/C=C/c1ccc2c(c1)CN(CCc1cnn3ccccc13)C2)NO [Example 28, (E)-N-Hydroxy-3-[2-(2-pyrazolo[1,5-a]pyridin-3-yl-ethyl)-2,3-dihydro-1H-isoindol-5-yl]-acrylamide] | > 1000 | 
< 100 | O=C(/C=C/c1ccc2c(c1)CN(C(=O)Cc1ccccc1)CC2)NO [Example 63, (E)-N-Hydroxy-3-(2-phenylacetyl-1,2,3,4-tetrahydro-isoquinolin-7-yl)-acrylamide] | > 1000 | 
100 to 1000 | COc1cccc(C(=O)N2CCc3cc(/C=C/C(=O)NO)ccc3C2)c1 [Example 88, (E)-N-Hydroxy-3-[2-(3-methoxy-benzoyl)-1,2,3,4-tetrahydro-isoquinolin-6-yl]-acrylamide] | > 1000 | 
< 100 | Cc1nn2ccccc2c1CCN1CCc2ccc(/C=C/C(=O)NO)cc2C1 [Example 40, (E)-N-Hydroxy-3-{2-[2-(2-methyl-pyrazolo[1,5-a]pyridin-3-yl)-ethyl]-1,2,3,4-tetrahydro-isoquinolin-7-yl}-acrylamide] | > 1000 | 
100 to 1000 | O=C(/C=C/c1ccc2c(c1)CN(CCC1CCCCC1)C2)NO [Example 35, (E)-3-[2-(2-Cyclohexyl-ethyl)-2,3-dihydro-1H-isoindol-5-yl]-N-hydroxy-acrylamide] | > 1000 | 

Source: US20100022514A1, “Heterocycle Compounds and Methods of Use Thereof” (NORVARTIS AG, priority 2006, published 2010)
